Columns and labels:
[1] = test system: Human dermal fibroblasts (HF cells); experiment: Cell protection assay, tert-butylhydroperoxide (t-BHP) toxicity, XTT; format: cell-based; settings: for Cell viability, absorbance at 490 nm uncorrected for blank: t-BHP 0.5 mM
Experimental: (§1) Human dermal fibroblasts (HF cells) were obtained from the American type tissue Culture Collection at passage 1 and cultured and propagated in a medium (HF medium) consisting of Dulbecco's Modified Eagle's Medium with 4.5 g/l D-glucose, 10% calf serum 4 mM glutamine, 50 units/ml penicillin, and 50 μg/ml streptomycin in a 37° C. humidified incubator equilibrated with 5% CO2. Cells were used at passages 5 or 6 for experiments. For cell protection assays, HF cells were seeded at a density of about 15,000 cells per cm2 onto 96-well culture plates and allowed to grow to confluence. To assess protection tert-butylhydroperoxide (t-BHP) toxicity, confluent cell layers were first treated with the indicated concentrations of test compounds dissolved in HF medium for 18 hr. The medium was then replaced with fresh medium containing test compounds and 0.5 mM tert-butylhydroperoxide (t-BHP) and cells were incubated for another 18 hr. The medium was then removed and replaced with fresh HF medium (100 μl per well) without test compounds or t-BHP. Fifty μl of XTT reagent (Boeringer Mannheim, Inc.), prepared as described by the manufacturer, was then added to each well and the plates returned to the incubator. After 2 hr., the absorbance at 490 nm was measured in a BioRad (Richmond, Calif.) Model 3550 plate-reader, using a reference wavelength of 655 nm. Control cells that had not been exposed to test compounds or toxic agents were included among the samples treated with XTT reagent. Absorbance measurements for blank wells, containing HF medium and XTT reagent but no cells, were also determined. To analyze protection from glucose/glucose oxidase toxicity, confluent cell layers were incubated with HF medium containing glucose oxidase (0.019 units/ml) along with test compounds, as indicated, for 18 hr in the tissue culture incubator. Fresh HF medium was then added and cell viability assessed using the XTT reagent as described above. For both these models, concentrations of toxic agents were selected that were reproducibly completely lethal. Cytotoxicity assessments were routinely confirmed by visual inspection of the cell layers prior to addition of the XTT reagent.

[2] = Peroxidase activity, H2O2-dependent oxidation of ABTS (Example 2); format: biochemical; settings: for Peroxidase rate: 10 μM salen manganese complex, 0.2 mM H2O2; for Peroxidase: relative to C7 (C7 = 100)
Experimental: (§2) Peroxidase activity was assayed by monitoring the hydrogen peroxide-dependent oxidation of 2,2′-azino-bis(3-ethylbenzthiazoline-6) sulfonic acid (ABTS) spectrophotometrically. Standard assay mixtures consisted of 50 mM sodium phosphate, pH 8.1, 0.9% sodium chloride, 0.5 mM ABTS, and H2O2 and salen manganese complex as indicated. Where indicated, 50 mM sodium phosphate buffers of pH 6.0 or pH 7.1 were substituted. Assays were conducted at 27±0.2° C. ABTS oxidation was monitored at 740 or 500 nm to eliminate interference by the salen manganese complexes, many of which absorb in the vicinity of the λmax of oxidized ABTS, and to avoid absorbance values that exceeded the linear range of the spectrophotometer. The amount of oxidized ABTS was estimated using an Δε740 of 20,300 M^−1cm^−1 or an Δε500 of 3400 M^−1cm^−1 calculated based upon the published molar extinction coefficient oat 405 nm (36,800).
(§3) Catalase and peroxidase activities were assayed as described in Example 2. Catalase assays contained 10 μM salen-manganese complex and 10 mM hydrogen peroxide. Peroxidase assays contained 10 μM salen-manganese complex and 0.2 mM hydrogen peroxide. Glucose-glucose oxidase toxicity assays were performed using human dermal fibroblasts as described in Example 2.

[3] = Catalase activity, conversion of H2O2 to oxygen, polarographic oxygen electrode (Example 2); format: biochemical
Experimental: Catalase activity was assayed by monitoring the conversion of H2O2 to oxygen using a Clark-type polarographic oxygen electrode. The apparatus consisted of a Mini Clark Style electrode, a 600 μl Oxygen Uptake Chamber, and a Chemical Microsensor system, all obtained from Diamond General Corporation (Ann Arbor, Mich.). The electrode was calibrated by immersion in nitrogen- or air-equilibrated buffers using a Dual Chamber Calibration Cell (Diamond General,. Corp.). Catalase reaction mixtures consisted of 50 mM sodium phosphate, pH 8.1, 0.9% sodium chloride, and salen manganese complex and H2O2 at the indicated concentrations. The temperature of the water-jacketed reaction chamber, as well as the calibration buffers, was maintained at 25±0.1° C. Data were collected at 1 sec intervals and stored-on a MacIntosh II computer using data acquisition hardware and software by Strawberry Tree, Inc. (Sunnyvale, Calif.). Dissolved oxygen concentrations were calculated as described previously (Del Rio et al. (1977) Anal. Biochem. 80: 409) based on a value of 2.5×10^−4 M oxygen for air-saturated buffer at 25° C. Linearity of the dissolved oxygen measurements within the experimental range was continued by determining the amount of oxygen generated from known quantities of H2O2 during exhaustive treatment with bovine liver catalase. Stock solutions of H2O2 were prepared by diluting a commercial 30% H2O2 solution in water and the H2O2 concentrations in these stocks were determined by absorbance at 240 nm, using a molar extinction coefficient of 44 (Stadtman, E R. et al. (1990) Proc. Natl. Acad. Sci. USA 87: 384). […] In the absence of salen manganese complex, H2O2 alone typically produced an early, relatively slow increase in signal. The slope of this increased signal was not proportional to H2O2 concentration (for example in one experiment, 1 and 10 Mm H2O2 yielded apparent rates of 12 and 14 μM oxygen per min, respectively) and may be due to an electrode artifact. […] Where presented, initial rates were calculated by determining the slope of the linear portion of time dependent plots of oxygen generation, usually comprising the first five seconds of the reaction. Unless otherwise indicated, these were corrected by subtracting the rate obtained with H2O2 alone. Where presented, endpoint oxygen generated was calculated from time-dependent plots, such as those shown in FIG. 14, as the difference between the baseline oxygen concentration immediately prior to substrate addition and the maximal oxygen concentration achieved during the course of the reaction. All reactions subjected to these calculations were run for a sufficient time to ensure that oxygen generation had ceased.
as §3

[4] = test system: brain homogenates; experiment: Iron-induced lipid peroxidation in brain homogenates (MDA); format: biochemical, rat
Experimental: Lipid peroxidation was induced by incubating a mixture consisting of 0.25 ml homogenate, 0.25 ml ASCF with test compounds, and 10 μM FeCl2 for 1 hr at 35° C. under an atmosphere equilibrated with O2:CO2(95:5). Following the incubation, 0.1 ml of the sample was extracted with trichloroacetic acid and analyzed for thiobarbituric acid reactive material as described previously, using authentic malonyldialdehyde (MDA) as a standard.

[5] = test system: Human dermal fibroblasts (HF cells); experiment: Cell protection assay, glucose/glucose oxidase toxicity, XTT; format: cell-based
Experimental: as §1, §3

[6] = SOD activity, xanthine/xanthine oxidase with cytochrome C as acceptor (Example 2); format: biochemical; settings: relative to C7 (C7 = 100)
Experimental: Superoxide dismutase (SOD) activity was assayed by following the inhibition of the reduction of an electron acceptor molecule in the presence of the free-radical generating system xanthine/xanthine oxidase (McCord et al. (1973) Superoxide and Superoxide Dismutase in “Oxidases and Related Redox Systems, vol. I, King et al. eds., University Park press, Baltimore, pp. 51-76). The assay mixture consisted of 50 mM sodium phosphate, pH 7.8, 120 μM xanthine, 0.2 units/ml xanthine oxidase, with acceptor molecule and salen manganese compound, as indicated. Assays were conducted at 27±0.2° C. using a water-jacketed cell holder in a Beckman DU7400 spectrophotometer. In most cases, oxidized cytochrome c, at 0.13 mg/ml, was employed as acceptor and its reduction was monitored spectrophotometrically at 550 nm. In some experiments, nitroblue tetrazolium (NBT), at 80 μM, was substituted for cytochrome c as the acceptor. NBT reduction was also monitored at 550 nm. An estimated extinction coefficient for NBT reduction, 20,800 M^−1cm^−1, determined empirically by exhaustive reduction of NBT in the reaction mixture described above, was employed where indicated. […] Conversion of xanthine to urate was calculated using ε290's of […] for urate and 4050 M^−1cm^−1 for xanthine. […] For each compound, at least four different concentrations were tested in duplicate.

[7] = Peroxidase activity with t-BHP as substrate, ABTS oxidation; format: biochemical; settings: 1 mM t-BHP
Experimental: as §2
(In comparison, horseradish peroxidase utilized t-BHP with an ABTS oxidation rate that was about 5.4% of the rate with H2O2).

[8] = 10 μM salen manganese complex, 10 mM H2O2

| Compound | Cell viability, absorbance at 490 nm uncorrected for blank ([1]; 2.5 μM) | Cell viability, absorbance at 490 nm uncorrected for blank ([1]; 5 μM) | Cell viability, absorbance at 490 nm uncorrected for blank ([1]; 10 μM) | Cell viability, absorbance at 490 nm uncorrected for blank ([1]; 20 μM) | Cell viability, absorbance at 490 nm uncorrected for blank ([1]; 40 μM) | Cell viability, absorbance at 490 nm uncorrected for blank ([1]; 80 μM) | Peroxidase rate [2] | Peroxidase [2] | Catalase rate [3, 8] | Endpoint [3, 8] | Catalase endpt. ([3]; relative to C7 (C7 = 100)) | Catalase rate ([3]; relative to C7 (C7 = 100)) | MDA levels, percent of control ([4]; 1 μM) | MDA levels, percent of control ([4]; 5 μM) | MDA levels, percent of control ([4]; 10 μM) | MDA levels, percent of control ([4]; 25 μM) | protection against glucose and glucose oxidase (in words) [5] | SOD [6] | also measured |
| --- | --- | --- | --- | --- | --- | --- | --- | --- | --- | --- | --- | --- | --- | --- | --- | --- | --- | --- | --- |
| CC(=O)[O][Mn]1[O]c2ccccc2C=NCCN=Cc2ccccc2[O]1 [Compound C31] | 0.28 ± 0.01 | 1.25 ± 0.09 | 1.41 ± 0.08 | 1.40 ± 0.06 | 1.30 ± 0.03 | 1.16 ± 0.09 | 21.3 ± 0.5 μM ABTS oxidized/min | 114 | 131.9 ± 12.9 μM O2/min | 29.6 ± 0.5 maximal μM O2 | 81 | 92 | 108% | 22% | 6% | 0% | about equally as effective as C7 | 101 | synergistic toxicity with t-BHP ([1]; 80 μM): possible synergistic toxicity |
| COc1ccc2c(c1)[O][Mn]([O]C(C)=O)[O]c1cc(OC)ccc1C=NCCN=C2 [Compound C33] | 0.27 ± 0.01 | 0.27 ± 0.01 | 1.35 ± 0.08 | 1.44 ± 0.08 | 1.50 ± 0.11 | 1.36 ± 0.02 | 0.8 ± 0.2 μM ABTS oxidized/min | 4 | 53.9 ± 8.7 μM O2/min | 12.6 ± 1.3 maximal μM O2 | 44 | 38 | 98% | 38% | 16% | 7% | about equally as effective as C7 | 68 | – |
| COc1ccc2c(c1)[O][Mn]([Cl])[O]c1cc(OC)ccc1C=NCCN=C2 [Compound C34] | 0.27 ± 0.01 | 0.27 ± 0.01 | 1.20 ± 0.12 | 1.46 ± 0.08 | 1.48 ± 0.08 | 1.54 ± 0.08 | 0.8 ± 0.2 μM ABTS oxidized/min | 4 | 66.4 ± 13.9 μM O2/min | 11.9 ± 0.2 maximal μM O2 | 44 | 46 | 97% | 30% | 12% | 6% | about equally as effective as C7 | 70 | – |
| COc1ccc2c(c1)C=NCCN=Cc1cc(OC)ccc1[O][Mn]([Cl])[O]2 [Compound C41] | 0.28 ± 0.01 | 0.28 ± 0.01 | 1.37 ± 0.01 | 1.44 ± 0.04 | 1.35 ± 0.06 | 1.07 ± 0.03 | 23.4 ± 2.6 μM ABTS oxidized/min | 136 | 172.2 ± 2.2 μM O2/min | 83.5 ± 0.9 maximal μM O2 | 311 | 120 | – | – | – | – | – | 114 | toxicity of compound alone ([1]; 80 μM, without t-BHP): equivalent toxicity with or without t-BHP; turnovers before the catalase reaction ceased ([3]; 10 μM complex, 10 mM H2O2): about 16 turnovers; protection against glucose and glucose oxidase ([5]; 80 μM, glucose oxidase 0.019 units/ml): highly protective |
| horseradish peroxidase | – | – | – | – | – | – | – | – | – | – | – | – | – | – | – | – | – | – | rate of ABTS oxidation ([2]; 13.2 units/ml, pH 8.1, 1 mM H2O2): 99.3 µM/min; ABTS oxidation rate with t-BHP, percent of rate with H2O2 [7]: about 5.4% |

— patent US7582786B2, “Synthetic catalytic free radical scavengers useful as antioxidants for prevention and therapy of disease” (Eukarion Inc., priority 1996, dated 2009)
